The text below walks through data of ChEMBL document CHEMBL1201862, “PubChem BioAssay data set” (2004).

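Test compounds were applied to cells in 96-well plates for 48 hours at 5 doses. GI50 is the concentration that inhibits growth by half.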 Activity calls are given as the source filed them. No stated cut-off is given here; in the data, active = GI50 up to about 1.1 µM and inactive = higher. Starred links: 1 amine or outer side, 2 acyl side, 3 side chain; linkers in the order of their positions; H or OH if unused. Non-standard residues stand in square brackets, D forms with d. Residues, ends and D or L forms follow the SMILES beside them. X41 = CSCCCC(N[*:1])C(=O)[*:2] Where only a bound is given, the exact number is not on record here.

Test systems include UACC-257; Malme-3M; HCC 2998; MOLT-4; SNB-19; U-251; SF-295; OVCAR-4; SK-MEL-5; SF-539; EKVX; TK-10; SK-MEL-28; HL-60; SR; HCT-116; DU-145; MDA-MB-231; NCI/ADR-RES; T47D.
Test in all cases: NCI anticancer screen, dose series, 48 h

Regarding `CC[As](CC)SCC1OC(OC(C)=O)C(OC(C)=O)C(OC(C)=O)C1OC(C)=O` (stereo unspecified), the GI50 is 14.2 µM (inactive) in the assay on UACC-257; 3.53 µM (inactive) in the assay with Malme-3M; 17.5 µM (inactive) with HCC 2998; 16.5 µM (inactive) with MOLT-4; 17.9 µM (inactive) in the assay on SNB-19; 12.8 µM (inactive) in the assay with U-251. In addition, the GI50 with SF-295 is 18.9 µM (inactive); with OVCAR-4 it was 21.9 µM (inactive); in the assay with SK-MEL-5, 15.1 µM (inactive); in the assay on SF-539, 13.1 µM (inactive); in the assay on EKVX, 21.4 µM (inactive); in the assay on TK-10, 16.6 µM (inactive). Also, the GI50 with SK-MEL-28 was 4.01 µM (inactive); in the assay on HL-60, 3.16 µM (inactive); in the assay with SR, 12 µM (inactive); with HCT-116, 17.1 µM (inactive).

Take `CN(Cc1ccccc1)c1nc(=[N+](C)C)ss1`: the GI50 was 56.5 µM (inactive) in the assay with UACC-257; > 100 µM (inactive) in the assay with Malme-3M; > 100 µM (inactive) in the assay on HCC 2998; 32.1 µM (inactive) with MOLT-4; 86.5 µM (inactive) in the assay on SNB-19; 40.8 µM (inactive) in the assay on U-251. In addition, the GI50 in the assay on SF-295 is > 100 µM (inactive); in the assay on OVCAR-4, > 100 µM (inactive); in the assay on SK-MEL-5, 58.6 µM (inactive); in the assay with SF-539, 76.4 µM (inactive); with EKVX, > 100 µM (inactive); in the assay on TK-10, 35.2 µM (inactive). In addition, the GI50 is > 100 µM (inactive) with SK-MEL-28, 28.4 µM (inactive) in the assay on HL-60, 44.2 µM (inactive) with SR and 34.6 µM (inactive) with HCT-116.

In the case of `CCCCCCCCCCCCCCCCCCOCC(C[N+]1(C)CCC(O)CC1)OCC` (stereo unspecified), the GI50 in the assay on UACC-257 is 10.9 µM (inactive); in the assay on Malme-3M, 12.3 µM (inactive); with HCC 2998, 12.7 µM (inactive); with MOLT-4 it was 2.87 µM (inactive); in the assay on SNB-19, 6.73 µM (inactive); in the assay with SF-295 it was 4.68 µM (inactive). Moreover, the GI50 in the assay on OVCAR-4 was 4.1 µM (inactive); in the assay on SF-539, 14.9 µM (inactive); in the assay on EKVX, 13.8 µM (inactive); in the assay on TK-10 it was 3.92 µM (inactive); with SK-MEL-28, 12.7 µM (inactive); in the assay with HL-60, 1.79 µM (inactive). Besides, the GI50 in the assay with SR was 1.78 µM (inactive); in the assay with HCT-116, 7.71 µM (inactive).

Take `O=C1CCCC/C1=C/C=C/c1ccccc1`: the GI50 in the assay on UACC-257 was 62.2 µM (inactive); in the assay on Malme-3M it was 87.9 µM (inactive); with HCC 2998, > 100 µM (inactive); in the assay on MOLT-4 it was 26.9 µM (inactive); in the assay with SNB-19 it was > 100 µM (inactive); in the assay with U-251, 83 µM (inactive). The GI50 in the assay with SF-295 was 48.6 µM (inactive); in the assay on OVCAR-4 it was 63.8 µM (inactive); in the assay with SK-MEL-5, 41.2 µM (inactive); in the assay on SF-539, > 100 µM (inactive); with TK-10 it was > 100 µM (inactive); in the assay on SK-MEL-28 it was > 100 µM (inactive). The GI50 in the assay on HL-60 is 25.9 µM (inactive); in the assay on HCT-116 it was 43.7 µM (inactive); with DU-145, 64.6 µM (inactive).

In the case of `O=C1c2cn[nH]c2N=C(Nc2ccccc2)C1/N=C/c1ccc([N+](=O)[O-])cc1` (stereo unspecified), the GI50 in the assay on UACC-257, in the assay on Malme-3M, in the assay with HCC 2998, with MOLT-4, in the assay with SNB-19 and in the assay on U-251 was > 10 µM (inactive) throughout. For the same compound, the GI50 in the assay on SF-295, with OVCAR-4, in the assay with SK-MEL-5, with SF-539, with EKVX and in the assay with TK-10 was > 10 µM (inactive) in each case. In addition, the GI50 in the assay with HL-60, in the assay with SR, in the assay with HCT-116 and with DU-145 was > 10 µM (inactive) throughout.

As to `COc1cc(C=O)c(-c2cc(OC)c(OC)cc2C=O)cc1OC`, the GI50 in the assay on UACC-257 was > 100 µM (inactive); in the assay with Malme-3M, > 100 µM (inactive); with HCC 2998, > 100 µM (inactive); with MOLT-4, 50.6 µM (inactive); in the assay on SNB-19 it was > 100 µM (inactive); in the assay on U-251 it was > 100 µM (inactive). Also, the GI50 in the assay on SF-295 is > 100 µM (inactive); with OVCAR-4, > 100 µM (inactive); in the assay on SK-MEL-5 it was 76.6 µM (inactive); in the assay on SF-539, > 100 µM (inactive); with EKVX, > 100 µM (inactive); in the assay with TK-10, > 100 µM (inactive). Besides, the GI50 in the assay with SK-MEL-28 was 47.8 µM (inactive); with HL-60 it was 36.8 µM (inactive); in the assay with SR it was 24.3 µM (inactive); in the assay on HCT-116, 70.3 µM (inactive).

Consider `CC1(C)CC(C2CC(C)(C)CC(C)(C)[C@H]2O)[C@@H](O)C(C)(C)C1` (stereo partly specified), for which the GI50 with UACC-257, in the assay on Malme-3M, in the assay with HCC 2998, in the assay on MOLT-4, with SNB-19 and with U-251 was > 100 µM (inactive) each time. The GI50 with SF-295, with SK-MEL-5, in the assay on SF-539, in the assay on EKVX, with TK-10 and with SK-MEL-28 was > 100 µM (inactive) throughout. Further, the GI50 in the assay on HL-60, in the assay with SR and in the assay with HCT-116 was > 100 µM (inactive) in each case.

For the compound `CSCCCC(NC(=O)CNC(=O)C1CCCN1C(=O)C(Cc1ccc(O)cc1)NC(=O)C(Cc1ccccc1)NC(=O)C(CCCNC(=N)N)NC(=O)C(CC(=O)O)NC(=O)C1CCCN1C(=O)C(CC(=O)O)NC(=O)C1CCCN1C(=O)C1CCCN1C(=O)CN)C(N)=O` (stereo unspecified) (H-GPPDPDRFYPG[X41]-NH2; configuration not given here), the GI50 with UACC-257, in the assay with Malme-3M, in the assay on MOLT-4, in the assay with SNB-19, in the assay on MDA-MB-231 and in the assay on U-251 was > 50 µM (inactive) throughout. Moreover, the GI50 with SF-295, in the assay on NCI/ADR-RES, with OVCAR-4, with SK-MEL-5, in the assay on SF-539 and in the assay on EKVX was > 50 µM (inactive) in each case. The GI50 in the assay on TK-10, in the assay with SK-MEL-28, with HL-60, with T47D, in the assay on SR and in the assay with HCT-116 was > 50 µM (inactive) each time.

Turning to `O=S(=O)(/C=C/CS(=O)(=O)c1ccccc1)c1ccccc1`, the GI50 is 24.2 µM (inactive) with UACC-257; 29.6 µM (inactive) with Malme-3M; 23.9 µM (inactive) with HCC 2998; 21.2 µM (inactive) in the assay with MOLT-4; 34.7 µM (inactive) in the assay on SNB-19; 25.8 µM (inactive) with U-251. Also, the GI50 in the assay on SF-295 is 27.9 µM (inactive); in the assay on OVCAR-4, 35.6 µM (inactive); in the assay on SK-MEL-5, 40.8 µM (inactive); in the assay on SF-539, 20.3 µM (inactive); in the assay on EKVX it was 41.6 µM (inactive); in the assay on TK-10 it was 43.7 µM (inactive). Further, the GI50 was 31.8 µM (inactive) in the assay on SK-MEL-28, 15.1 µM (inactive) in the assay with HL-60, 1.66 µM (inactive) with SR and 19.1 µM (inactive) with HCT-116.

Take `Cc1cc2[nH]c3c(C#N)c(-c4ccccc4)c(/C=N/c4ccc(F)cc4)c(=O)n3c2cc1C`: the GI50 with UACC-257 was > 100 µM (inactive); in the assay with Malme-3M, 76 µM (inactive); with HCC 2998, > 100 µM (inactive); with SNB-19 it was 0.513 µM (active); in the assay with MDA-MB-231, > 100 µM (inactive); in the assay on U-251, > 100 µM (inactive). In addition, the GI50 in the assay with SF-295 was 64.6 µM (inactive); with NCI/ADR-RES, > 100 µM (inactive); in the assay on OVCAR-4 it was > 100 µM (inactive); in the assay on SK-MEL-5, > 100 µM (inactive); in the assay on SF-539 it was > 100 µM (inactive); in the assay with EKVX, > 100 µM (inactive). For the same compound, the GI50 in the assay with TK-10 is > 100 µM (inactive); with SK-MEL-28 it was > 100 µM (inactive); in the assay on T47D, 40.6 µM (inactive); in the assay on HCT-116 it was > 100 µM (inactive).

As to `Cc1nc(Nc2ccccc2)sc1C(=O)CC(=O)C(=O)Nc1c(C(C)C)cccc1C(C)C`, the GI50 with UACC-257, with Malme-3M, in the assay with HCC 2998, in the assay on MOLT-4, in the assay on SNB-19 and in the assay with U-251 was > 100 µM (inactive) throughout. Moreover, the GI50 with SF-295 is > 100 µM (inactive); in the assay on OVCAR-4 it was > 100 µM (inactive); in the assay with SK-MEL-5, > 100 µM (inactive); in the assay with SF-539, > 100 µM (inactive); in the assay on EKVX, 19.8 µM (inactive); in the assay on TK-10, > 100 µM (inactive). Besides, the GI50 is > 100 µM (inactive) in the assay with SK-MEL-28, 67.9 µM (inactive) in the assay with HL-60, 20.6 µM (inactive) with SR and > 100 µM (inactive) with HCT-116.

As to `CC1Cn2c(nc3ccccc32)NC1=O` (stereo unspecified), the GI50 was > 100 µM (inactive) in the assay with UACC-257; 58.2 µM (inactive) in the assay with Malme-3M; > 100 µM (inactive) with MOLT-4; > 100 µM (inactive) in the assay on SNB-19; > 100 µM (inactive) in the assay with MDA-MB-231; > 100 µM (inactive) in the assay on U-251. Further, the GI50 in the assay with SF-295, with NCI/ADR-RES, with OVCAR-4, in the assay with SK-MEL-5, in the assay on SF-539 and with EKVX was > 100 µM (inactive) each time. For the same compound, the GI50 in the assay with TK-10, in the assay on HL-60, in the assay with T47D, in the assay with SR and in the assay on HCT-116 was > 100 µM (inactive) in each case.
